Laboratory results: patent US7998940B2, “Aptamers to von Willebrand factor and their use as thrombotic disease therapeutics” (Archemix Corp., priority 2004, dated 2011)
Read-outs that look alike come from different tables or passages of the source. Oligonucleotides are written 5' to 3', each unit as a sugar letter and its base; * is a phosphorothioate linkage, no mark a phosphodiester; rarer units and linkages stand in square brackets, end groups in braces. Plain capitals give the bases only. {PEG20K-NH2} = 20 kDa PEG attached to the 5' nucleotide via an amine linker; [invdT] = inverted (3'-3') thymidine; d = 2'-deoxy (DNA); r = 2'-OH (RNA)

Assays:
[1] = test system: full length human vWF (SEQ ID NO 7); assay: dot blot KD determination and extent of binding, full length human vWF; details: for Kd: rRdY minimers, 8 point titration 0-300 nM, read-out: Full length human vWF KD;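 on all read-outs here: dot blot binding of aptamers to full length human vWF across a protein titration, incubated 30 minutes at room temperature in 1x DPBS with BSA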
Protocol: Based on this initial screen, KDs were determined for 3 of the vWF dependent binding sequences using the dot blot assay. […] A 12 point protein titration was used in the dot blot assay (300 nM, 100 nM, 30 nM, 10 nM, 3 nM, 1 nM, 300 pM, 100 pM, 30 pM, 10 pM, 3 pM, 0 pM) in 1×DPBS plus 0.1 mg/mL BSA at room temperature for 30 minutes.
An 8 point protein titration was used in the dot blot binding assay (100n M, 30 nM, 10 nM, 3 nM, 1 nM, 300 pM, 100 pM, 0 pM)) in 1× Dulbecco's PBS containing 0.1 BSA (final volume of 50 uL) for 30 minutes at room temperature.

[2] = test system: rabbit vWF A1 domain (SEQ ID NO 6); assay: dot blot KD determination, rabbit vWF A1 domain; assay type: binding
Chain of rabbit vWF A1 domain (SEQ ID NO 6) (as listed by the source): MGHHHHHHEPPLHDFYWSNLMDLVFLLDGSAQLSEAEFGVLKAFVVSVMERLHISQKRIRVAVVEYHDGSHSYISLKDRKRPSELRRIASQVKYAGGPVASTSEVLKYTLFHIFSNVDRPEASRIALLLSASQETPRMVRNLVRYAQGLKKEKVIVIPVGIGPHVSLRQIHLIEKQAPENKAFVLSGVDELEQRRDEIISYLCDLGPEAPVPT
Protocol: A 12 point protein titration was used in the dot blot assay (300 nM, 100 nM, 30 nM, 10 nM, 3 nM, 1 nM, 300 pM, 100 pM, 30 pM, 10 pM, 3 pM, 0 pM) in 1×DPBS plus 0.1 mg/mL BSA at room temperature for 30 minutes.

[3] = test system: full length human vWF binding to lyophilized platelets; assay: Full length human von Willebrand Factor platelet binding assay (FACS); assay type: cell-based; details: 5 nM full length human vWF, lyophilized platelets, botrocetin
In short: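 Aptamer titrations (0.1–1000 nM) pre-incubated with 5 nM full-length human vWF, then added to lyophilized platelets plus botrocetin for 15 min at 37 °C in PBS/0.5% BSA. Bound vWF detected by anti-vWF then FITC secondary antibody via flow cytometry MFI; % inhibition versus no-aptamer binding fitted for IC50.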

[4] = test system: rabbit vWF domain A1 binding to lyophilized platelets; assay: Rabbit von Willebrand Factor domain A1 platelet binding assay (FACS); assay type: cell-based; details: 4 nM rabbit A1 vWF, lyophilized platelets, botrocetin; for IC50: read-out: Inhibition of rabbit VWF A1 domain binding in FACS assay, Average IC50
Chain of rabbit vWF domain A1 binding to lyophilized platelets (as listed by the source): as above
Protocol: Botrocetin induces the binding of the A1 domain of vWF to platelets, as well as the full length protein. It was determined by the inventors that 6-Histidine-tagged rabbit A1 domain vWF purified protein could be induced to bind to human lyophilized platelets with botrocetin. Rabbit A1 binding to platelets is measured with an anti-poly-His antibody followed by incubation with a phycoerythrin conjugated secondary antibody. The degree of binding can be quantified by flow cytometric analysis. The ability of aptamers to block the binding of rabbit A1 to human fixed platelets was correlated with decreased fluorescence signal.
The ability of aptamers of the invention to block rabbit vWF domain A1 binding to lyophilized platelets was also assessed by flow cytometric analysis. Titrations of aptamers (zero, 0.1 nM to 1000 nM) were preincubated briefly with 4 nM of rabbit A1 vWF in FACS buffer (PBS plus 0.5% bovine serum albumin) at room temperature in a volume of 50 uL. Another 50 uL containing 5 uL of lyophilized platelets plus 1 uL of 0.1 U/uL of botrocetin in FACS buffer was added to aptamer/vWF. This reaction was allowed to proceed for 15 minutes at 37 degrees C. after which 200 uL of FACS buffer was added. Platelets were collected by a 6 minute spin at 1470 RCF and the supernatant was discarded. The pellets were resuspended in 100 uL of FACS buffer containing a 1:200 dilution of anti-Penta-HIS-biotin conjugate antibody and were incubated at room temperature for 30 minutes. After the dilution with 200 uL of FACS buffer, the platelets were spun at 1470 RCF for 6 minutes, and the supernatant was discarded. The pellets were resuspended in a 1:100 solution of anti-IgG-PE antibody and were incubated in the dark for 30 minutes at room temperature. The entire 100 uL was diluted into 200 uL of FACS buffer and analyzed immediately by flow cytometric analysis in the FACSCAN. Contaminating debris was eliminated from the analysis by drawing a gate around the population of single and aggregated platelets and collecting data from 10000 events. Median fluorescent intensity (“MedFI”) readings (which are generally equivalent to the MFI readings, described in Example 3a above, for comparative purposes) were quantified for each sample analyzed by flow cytometry. Background MedFI was subtracted from all data points. Percent inhibition was reported by calculating the percent value of binding of […] to platelets in the presence of aptamer at a given concentration relative to binding in the absence of any aptamer (see FIG. 7). IC50 values were determined by fitting the percent inhibition of vWF binding to platelets as a function of aptamer concentration to the equation: % inhibition=% inhibitionmax/(1+IC50/aptamer conc.)

[5] = test system: botrocetin induced platelet aggregation; assay: Inhibition of botrocetin induced platelet aggregation (BIPA) in human PRP; assay type: cell-based; details: for ≦200 nM aptamer gives >90% blocking in BIPA at 6 minutes: botrocetin induced platelet aggregation; for IC90: human platelet rich plasma
Protocol: In platelet rich plasma isolated from fresh human blood, botrocetin induces platelet aggregation via vWF. Platelet aggregate formation can be measured optically as an increase in % light transmittance on a Chronolog Model 490-4D Aggregometer because aggregation of platelets clarifies the plasma. Aptamers of the invention were analyzed for their ability to inhibit botrocetin induced platelet aggregation (“BIPA”) in human blood. An aptamer of the invention was considered to be active if it could prevent aggregate formation for six minutes post botrocetin addition.
In order to determine the activity of aptamers on live human platelets, BIPA assays were done using freshly prepared platelet rich plasma. Blood was obtained from healthy human donors who had not taken NSAIDS for at least five days. […] Collected blood was pooled into 15 mL conical tubes and was spun at 200 g for 20 minutes. The turbid, yellow layer of platelet rich plasma (“PRP”) was withdrawn from the tubes, pooled, and set aside at room temperature. The remaining blood was spun at 2500 g for ten minutes. The clarified layer of plasma, known as platelet poor plasma (“PPP”), was withdrawn and set aside at room temperature. PRP was aliquoted into cuvettes containing stir bars at a volume of 470 uL. A sample of 500 uL of PPP was aliquoted into a cuvette and placed in the PPP reference cell of the platelet aggregometer. Samples of PRP were prewarmed at 37 degrees C. in the platelet aggregometer for 3-5 minutes before being used in BIPA assays. First, the concentration of botrocetin needed to induce platelet aggregation for each individual donor was determined by titration. This concentration of botrocetin was used for the remainder of the experiment. Next, aptamer was assayed by adding titrations of aptamer (zero, 1 nM to 1000 nM) to prewarmed PRP for one minute, followed by addition of botrocetin. With platelet aggregation, an increase in amplitude of light transmission is seen (FIG. 8). The concentration at which platelet aggregation is blocked at 90% or greater after 6 minutes is reported in the final column of Table 26.

[6] = molecular target: human vWF A1 domain (SEQ ID NO 5) (Homo sapiens, UniProt P04275, T1381A); assay: dot blot KD determination, human vWF A1 domain; details: read-out: Human vWF A1 domain KD
Chain of human vWF A1 domain (SEQ ID NO 5) (P04275 with tags, fused parts or gaps T1381A): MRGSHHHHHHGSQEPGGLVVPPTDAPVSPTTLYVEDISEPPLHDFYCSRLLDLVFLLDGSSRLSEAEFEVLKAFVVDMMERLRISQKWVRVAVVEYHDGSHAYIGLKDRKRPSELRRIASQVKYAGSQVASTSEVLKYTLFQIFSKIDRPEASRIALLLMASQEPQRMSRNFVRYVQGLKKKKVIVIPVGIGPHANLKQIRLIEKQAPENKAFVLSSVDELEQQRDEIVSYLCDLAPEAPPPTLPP

[7] = test system: vWF dependent platelet plug formation, human whole blood; assay: PFA-100 assay, human whole blood; assay type: cell-based; details: citrated human whole blood; minimum concentration that extends closing time to 300 seconds
From the text: Another assay of this Example, using the PFA-100 instrument, is an agonist independent but vWF dependent assay that uses the PFA-100 instrument (Harrison et al., Clin. Lab. Haem., v24, p 225-32 (2002)). The PFA-100 simulates the formation of a hemostatic plug under conditions of high shear force in vivo by recording the time required for a platelets to aggregate and block the flow of citrated whole blood through a microscopic aperture in a membrane coated with collagen and either epinephrine or ADP. This activity is von Willebrand factor dependent as high MW vWF multimers bind to immobilized collagen on the membrane and then bind to and activate platelets because of the shear force induced by drawing the blood through the microscopic aperture.
Fresh whole blood was collected from healthy non-steroidal anti-inflammatory drug (NSAID) free cynomolgus macaques. Aptamers were diluted with physiological saline from Aldon (Cat#9420306) in no-additive vacutainer tubes (Cat#366434, Becton Dickenson). Samples were loaded onto collagen/epinephrine test cartridges (Cat#B4170-20A, Dade Behring) which were used in the PFA-100 machine (Dade Behring). Trigger solution (Cat#B4170-50, Dade Behring) was used in the self-test and to pre-wet the test cartridges. O-ring cleaning pads (Cat#B4170-73, Dade Behring) were used in the self-test and in the O-ring cleaning process.
A self-test, which included an O-ring cleaning process, was always run on the PFA-100 machine before running any samples to ensure proper function of the machine.
During the entire experiment, the tubes of whole blood were gently inverted every five minutes to prevent settling.
In order to assay the titration of aptamer in whole blood, the aptamer was added to no-additive vacutainer tubes and diluted to the desired concentrations (ex: 0 nM, 1 nM to 1000 nM) using physiological saline such that the final volume was […]. When the PFA-100 was ready to run the next set of samples, 1940 μl of whole blood was added to the tube containing a concentration of aptamer. This tube was gently inverted three times to thoroughly mix the aptamer and blood. Samples were always run in duplicate on the PFA-100 machine. 800 μl of this blood mixture was loaded into the collagen/epinephrine test cartridges. The test cartridges were loaded onto the PFA-100 machine. The time of occlusion of the aperture was measured by the PFA-100, with a maximal time of 300 seconds. We estimate the IC95 in this assay to be the minimum concentration of aptamer that extends the closing time to 300 seconds.

[8] = pharmacokinetics after 3 mg/kg IV in cynomolgus macaques (Oligreen, HPLC); assay type: in vivo; details: cynomolgus monkey, in vivo, iv, 3 mg/kg
Protocol: ARC1368 (SEQ ID NO 291), 1779 (SEQ ID NO 320) and 1780 (SEQ ID NO 321) (as described in Example 2 above) were injected intravenously into cynomolgus macaques (n=3/group) at a dosage of 3 mg/kg which was expected to yield an instantaneous plasma concentration of 3 uM, approximately 30-fold higher than the putative effective dose. Subsequently, citrated blood samples were collected at regular intervals and processed for plasma.
Subsequently, plasma aptamer concentrations were determined using the Oligreen assay (Gray et al., Antisense and Nucleic Acid Drug Development 7 (3):133-140 (1997). The data were subsequently analyzed using the program WinNonlin to yield the pharmacokinetic parameters listed in Tables 29 to 31 below.
Following the Oligreen assay analysis, plasma aptamer concentrations were determined for the animals dosed with ARC1779 (SEQ ID NO 320) using a validated HPLC-based assay. The HPLC data were analyzed via noncompartmental and 2-compartment analysis using the program WinNonlin.

[9] = rRdY minimers, 8 point titration 0-300 nM
[10] = read-out: Inhibition of full length hVWF binding in FACS assay, Average IC50

Row | Substance | Kd [1] | Kd [2, 9] | IC50 [3, 10] | IC50 [4] | ≦200 nM aptamer gives >90% blocking in BIPA at 6 minutes [5] | Kd [6, 9] | IC90 [5] | ~IC95 PFA-100 (nM) with citrated human whole blood [7] | other results
1 | GGAGCCACACGACATTGGCGGGCGAGAGCCACGCATGGCTCC (rGrGrArGdCdCrAdCrAdCrGrAdCrAdTdTrGrGdCrGrGrGdCrGrArGrArGdCdCrAdCrGdCrAdTrGrGdCdTdCdC) [SEQ ID NO 192] | 2 ± 0.2 nM | 8 ± 1 nM | 2600 pM | 2.2 nM | yes | 4 ± 1 nM | – | – | –
2 | PEG40K-NH2-mGmCmGmUdGdCdAmGmUmGmCmCmUmUmCmGmGmCdCmG-s-TmGdCdGdGTmGmCdCmUdCdCmGmUdCmAmCmGmC-3T [ARC1780] | – | – | – | – | – | – | ~100 nM | ~100 nM | AUCall, Mean [8]: 751.065 µg·h/mL; AUClast, Mean [8]: 751.065 µg·h/mL; MRTlast, Mean [8]: 10.78 h; distribution phase [8]: prolonged distribution phase; pharmacokinetic profile [8]: mainly monophasic
3 | ATGAGAGTGCTGGTGGATTGCTCAGGTCTGCTGGCTGCTTACTCTCAT (DNA, backbone not given here) [ARC845] | – | – | – | – | no activity | – | – | – | Full length human vWF KD ([1]; DNA 1 minimers): No binding; Kd ([2]; DNA 1 minimers): 56 nM; Inhibition of full length hVWF binding in FACS assay, Average IC50 [3]: no activity; Inhibition of full length hVWF binding in FACS assay, IC50 range ([3]; both bounds in nM): no activity; Inhibition of rabbit VWF A1 domain binding in FACS assay, Average IC50 [4]: no activity; Inhibition of rabbit VWF A1 domain binding in FACS assay, IC50 range ([4]; both bounds in nM): no activity; Kd ([6]; DNA 1 minimers, competition dot blot, 10 nM protein): 10 nM
4 | GGAGCCACGGGGTGGGTAGACGGCGGGTATGTGGCTCC (rGrGrArGdCdCrAdCrGrGrGrGdTrGrGrGdTrArGrAdCrGrGdCrGrGrGdTrAdTrGdTrGrGdCdTdCdC) [SEQ ID NO 180] | 1 nM | 14 nM | 2000 pM | 9.3 nM | yes | 11 nM | – | – | IC50 ([3]; units in the cell: lower bound pM, upper bound nM, read-out: Inhibition of full length hVWF binding in FACS assay, IC50 range): 731 to 3800 pM
5 | PEG20K-NH2-dGdGdCdGTdGdCdAdGTdGdCdCTTdCdGdGdCdCdGTdGdCdGdGTdGdCdCTdCdCdGTdCdAdCdGdCdC-3T (GGCGTGCAGTGCCTTCGGCCGTGCGGTGCCTCCGTCACGCC; DNA, [invdT] at 3' end, 5' {PEG20K-NH2}, backbone not given here) [ARC1885, 20 kDa PEG conjugate of ARC1172] | – | – | – | – | – | – | ~50 nM | ~100 nM | –
